Results reported in patent publication US9497963B2, “Methods and compositions for control of gypsy moth, Lymantria dispar” (Simon Fraser University, priority 2008, dated 2016).
Marks after values point to notes of the source that are not given here.

How the values were obtained:
male gypsy moth antenna = assay: Coupled gas chromatographic-electroantennographic detection (GC-EAD); parameters: species or system Lymantria dispar
Excerpt: In GC-EAD assays, the analyte is processed by gas chromatography (GC). The column effluent is split, such that molecules of each chromatographic peak arrive simultaneously at the flame ionization detector of the GC and at an anectomized but otherwise intact insect antenna as the biological detector. This procedure detects specific compounds in the analyte that elicit an electrical potential from the antenna.
For GC-EAD recordings, an antenna was carefully dislodged from a male moth's head, and the antennal base placed into the opening of a glass capillary electrode (0.58 mm ID×65 mm length) (A-M Systems, Inc., Carlsborg, Wash., USA) filled with saline solution. The tip of the antenna was removed by spring microscissors (Fine Science Tools Inc., North Vancouver, British Columbia, Canada) and then placed into the opening of the recording electrode mounted on a portable micromanipulator and positioned in front of a constant stream of warm air (Praxair Canada Inc., Mississauga, Ontario, Canada) which delivered the GC column eluent. […] Identical retention times of compounds detected by the flame ionization detector of the GC and by the insect antenna allowed assignment of antennal responses to specific compounds in the eluent.

[1] = test system: male gypsy moth antenna response to pheromone (+)-1; assay: EAG short-term (STI) and long-term (LTI) inhibition of pheromone signaling (Example 5); parameters: species or system Lymantria dispar; conditions: mean ± S.E.; for Activity (%): short-term inhibition (STI): negative = enhancement
Experimental: The puffs are numbered i-vi and were: i=air, ii=pure pheromone (+)-disparlure, (+)-1, (100 ng), iii-v=disparlure mixed with the test compound, the latter at three different doses, vi=pure (+)-1. Depolarizations from the resting potential are labeled d; hyperpolarizations seen during the recovery phase after a puff are labeled r. Subscripts refer to the puff number. FIG. 5A. Typical trace for compound 3c{2,3}. FIG. 5B. Typical trace for compound 3a{4,4}.
For other compounds, EAG traces were recorded as follows: a fully dislodged antenna from a male gypsy moth was mounted on the end of a reference electrode (a glass capillary with a silver wire, filled with buffered saline: 5 mM NaH2PO4, 10 mM Na2SO4, 4.5 mM KHCO3, 18 mM MgCl2, 4 mM CaCl2, 6 mM KCl, the pH is adjusted to 6.8 using 5 mM Na2HPO4). The tip of the antenna was severed with microscissors and placed in the recording electrode, which was mounted on a micromanipulator. A constant stream of air, that had been purified (charcoal filter), was blown over the antenna at a rate of 300 mL/min. Test samples were delivered through a stimulus delivery tube with a side opening 2 cm from the distal opening. The proximal end of the delivery tube was connected to a controlled stimulus delivery apparatus (Stimulus controller CS-05 Syntech Research and Equipment, NL 1200BM, Hilversum, The Netherlands). The distal end of the delivery tube pointed at the antenna (1 cm from the antenna). The side opening was connected to a cartridge fashioned from a Pasteur pipette which contained a small filter paper (Whatman No. 1) with the stimulus. These pipette cartridges could be prepared a few days in advance and stored at −80° C. wrapped in Al foil and in sealable plastic bags. Sample cartridges were mounted once they had reached room temperature. The stimulus delivery apparatus delivered a second stream of air (a puff) through the Pasteur pipette at a velocity of 600 mL/min, at a specified point in time, for 0.3 s. Receptor potentials of the antennae in response to test stimuli were recorded with a Syntech IDAC probe, amplifier and interfaced board, and were analyzed with EAG Syntech Software Version 2.4 (1996). See FIG. 4 for a representative EAG trace. The EAG traces were evaluated as follows (see FIG. 5).
The net depolarizations, d(net) (in mV), of puffs ii-vi,d(sample), (corrected for the depolarization with clean air, d(air)) d(net)=d(sample)−d(air) (Eq. 1)
The percentage short-term inhibition for each compound (STI(compound)) of puffs iii-v, relative to the first pure pheromone puff (ii) STI(compound)=100×(d(net)(ii)−d(net)(compound))/d(net)(ii) (Eq. 2)
c) the percentage long-term inhibition for each compound (LTI(compound)) of the pure pheromone puff that followed the last mixed puff (vi) relative to the first pure pheromone puff (ii) LTI(compound)=100×(d(net)(ii)−d(net)(vi))/d(net)(ii) (Eq. 3)
The compounds we tested gave weak or no olfactory responses by themselves in electroantennogram (EAG) experiments. The EAG trace reflects the change in the potential across the antenna when an air puff with an odorant is passed over the antenna. To understand the agonistic or antagonistic effect of the compounds on pheromone responses by male moth antennae, four types of EAG experiment were conducted. First, the response of the antenna elicited by a stimulus of pure (+)-1 was compared to the responses elicited by blends of (+)-1 with the test compound (FIG. 5). […] This effect was termed short-term inhibition (STI). […] Second, the time decay and dose responses for LTI activities were studied. Third, the strongest inhibitors were tested for their ability to cause LTI by themselves.
This experiment explored the agonistic or antagonistic activity of the synthetic aromatic compounds (Scheme 1 and eugenol and alkyl eugenols) with the gypsy moth pheromone (+)-1. […]

[2] = EAD peak size and shape (sharp/broad)
[3] = male gypsy moth antenna, starting phenols 4, diethers 5 and dihydropyrans 6c from Claisen rearrangement chemistry

Structure (SMILES)	GC-EAD activity (male gypsy moth antenna; [2])	GC-EAD activity (male gypsy moth antenna; [3])	further results
COc1ccccc1O [2a{1}]	None	–	Activity (%): short-term inhibition (STI) ([1]; mixed plume (+)-1 100 ng + compound 1 μg): 26 ± 14 (13)^e %; Activity (%): short-term inhibition (STI) ([1]; mixed plume (+)-1 100 ng + compound 10 μg): −27 ± 24 (13) %; Activity (%): short-term inhibition (STI) ([1]; mixed plume (+)-1 100 ng + compound 100 μg (puff v)): 9 ± 11 (13) %; Activity (%): long-term inhibition (LTI) ([1]; pure (+)-1 100 ng plume following mixed plume with 100 μg compound): −13 ± 9 (13) %
CCOc1ccccc1OC [3a{1,2}, 1-ethoxy-2-methoxy benzene]	++ sharp	–	–
CCCOc1ccccc1OC [3a{1,3}, 1-methoxy-2-propoxy benzene]	+ sharp	–	–
CCCCOc1ccccc1OC [3a{1,4}, 1-butoxy-2-methoxy benzene]	Trace	–	–
COc1ccccc1OCCC(C)C [3a{1,5}, 1-methoxy-2-(3-methyl-butoxy) benzene]	+ broad	–	–
C=CCOc1ccccc1OC [3a{1,6}, 1-allyloxy-2-methoxy benzene]	+ sharp	–	–
CCCOc1ccccc1OCC [3a{2,3}, 1-ethoxy-2-propoxy benzene]	+ sharp	–	–
CCCCOc1ccccc1OCC [3a{2,4}, 1-ethoxy-2-butoxy benzene]	++ sharp	–	–
CCOc1ccccc1OCCC(C)C [3a{2,5}, 1-ethoxy-2-(3-methyl-butoxy) benzene]	++ sharp	–	–
C=CCOc1ccccc1OCC [3a{2,6}, 1-allyloxy-2-ethoxy benzene]	+ broad	–	–
CCCCOc1ccccc1OCCC [3a{3,4}, 1-butoxy-2-propoxy benzene]	++ sharp	–	–
CCCOc1ccccc1OCCC(C)C [3a{3,5}, 1-(3-methyl-butoxy)-2-propoxy benzene]	+ broad	–	–
C=CCOc1ccccc1OCCC [3a{3,6}, 1-allyloxy-2-propoxybenzene]	++ broad	–	–
CCCCOc1ccccc1OCCC(C)C [3a{4,5}, 1-butoxy-2-(3-methyl-butoxy) benzene]	+ broad	–	–
C=CCOc1ccccc1OCCCC [3a{4,6}, 1-allyloxy-2-butoxybenzene]	++ broad	–	–
C=CCOc1ccccc1OCCC(C)C [3a{5,6}, 1-allyloxy-2-isopentoxybenzene]	+ broad	–	–
CCOc1cccc(OC)c1 [3b{1,2}, 1-ethoxy-3-methoxy benzene]	Trace	–	–
CCCOc1cccc(OC)c1 [3b{1,3}, 1-methoxy-3-propoxy benzene]	Trace	–	–
CCCCOc1cccc(OC)c1 [3b{1,4}, 1-butoxy-3-methoxy benzene]	None	–	–
COc1cccc(OCCC(C)C)c1 [3b{1,5}, 1-methoxy-3-(3-methyl-butyloxy) benzene]	None	–	–
CCCOc1cccc(OCC)c1 [3b{2,3}, 1-ethoxy-3-propoxy benzene]	None	–	–
CCCCOc1cccc(OCC)c1 [3b{2,4}, 1-butoxy-3-ethoxy benzene]	None	–	–
CCOc1cccc(OCCC(C)C)c1 [3b{2,5}, 1-ethoxy-3-(3-methyl-butyloxy) benzene]	None	–	–
CCCCOc1cccc(OCCC)c1 [3b{3,4}, 1-butoxy-3-propoxy benzene]	None	–	–
CCCOc1cccc(OCCC(C)C)c1 [3b{3,5}, 1-(3-methyl-butyloxy)-3-propoxy benzene]	None	–	–
CCCCOc1cccc(OCCC(C)C)c1 [3b{4,5}, 1-butoxy-3-(3-methyl-butyloxy) benzene]	None	–	–
C=CCOc1ccc(OC)cc1 [3c{1,6}, 1-allyloxy-4-methoxybenzene]	Trace	–	–
C=CCOc1ccc(OCC)cc1 [3c{2,6}, 1-allyloxy-4-ethoxybenzene]	Trace	–	–

Structure (SMILES)	GC-EAD activity (male gypsy moth antenna; [2])	GC-EAD activity (male gypsy moth antenna; [3])	further results
C=CCOc1ccc(OCCCC)cc1 [3c{4,6}, 1-allyloxy-4-butoxy benzene]	None	–	–
C=CCOc1ccc(OCCC(C)C)cc1 [3c{5,6}, 1-allyloxy-4-isopentoxybenzene]	None	–	–
C=CCc1cccc(OC)c1O [4a{1}, 2-allyl-6-methoxy phenol]	–	++ sharp	–
C=CCc1cccc(OCC)c1O [4a{2}, 2-allyl-6-ethoxy phenol]	–	+ sharp	–
C=CCc1cccc(OCCC)c1O [4a{3}, 2-allyl-6-propoxy phenol]	–	+ broad	–
C=CCc1cccc(OCCCC)c1O [4a{4}, 2-allyl-6-butoxy phenol]	–	Trace	–
C=CCc1cccc(OCCC(C)C)c1O [4a{5}, 2-allyl-6-(3-methyl-butoxy) phenol]	–	Trace	–
C=CCc1cc(OC)ccc1O [4c{1}, 2-allyl-4-methoxy phenol]	–	++ sharp	–
C=CCc1cc(OCC)ccc1O [4c{2}, 2-allyl-4-ethoxy phenol]	–	+ sharp	–
C=CCc1cc(OCCC)ccc1O [4c{3}, 2-allyl-4-propoxy phenol]	–	Trace	–
C=CCc1cc(OCCCC)ccc1O [4c{4}, 2-allyl-4-butoxy phenol]	–	None	–
C=CCc1cc(OCCC(C)C)ccc1O [4c{5}, 2-allyl-4-(3-methyl-butoxy) phenol]	–	None	–
C=CCc1cccc(OC)c1OCC [5a{2, 1}]	–	Trace	–
C=CCc1cccc(OC)c1OCCC [5a{3, 1}]	–	+ broad	–
C=CCc1cccc(OCC)c1OCCC [5a{3, 2}]	–	+ broad	–
C=CCc1cccc(OC)c1OCCCC [5a{4, 1}]	–	None	–
C=CCc1cccc(OCCC)c1OCCCC [5a{4, 3}]	–	None	–
C=CCc1cccc(OC)c1OCCC(C)C [5a{5, 1}]	–	Trace	–
C=CCc1cccc(OCC)c1OCCC(C)C [5a{5, 2}]	–	None	–
C=CCc1cccc(OCCC)c1OCCC(C)C [5a{5, 3}]	–	None	–
C=CCc1cccc(OCCCC)c1OCCC(C)C [5a{5, 4}]	–	None	–
C=CCOc1cccc(CC=C)c1OCCC(C)C [5a{5, 6}]	–	None	–
COc1ccc2c(c1)CC(C)O2 (centres unmarked) [6c{1}, 5-methoxy-2-methyl-2,3-dihydro benzofuran]	–	+ sharp	–
CCOc1ccc2c(c1)CC(C)O2 (centres unmarked) [6c{2}, 5-ethoxy-2-methyl-2,3-dihydro benzofuran]	–	Trace	–
CCCOc1ccc2c(c1)CC(C)O2 (centres unmarked) [6c{3}, 5-propoxy-2-methyl-2,3-dihydro benzofuran]	–	Trace	–
CCCCOc1ccc2c(c1)CC(C)O2 (centres unmarked) [6c{4}, 5-butoxy-2-methyl-2,3-dihydro benzofuran]	–	None	–
CC(C)CCOc1ccc2c(c1)CC(C)O2 (centres unmarked) [6c{5}, 5-(3-methyl-butoxy)-2-methyl-2,3-dihydro benzofuran]	–	None	–
